Source: article PMC8507260, “A2E-induced inflammation and angiogenesis in RPE cells in vitro are modulated by PPAR-α, -β/δ, -γ, and RXR antagonists and by norbixin” (Aging (Albany NY), 2021)

What was measured:
PPAR = experiment: Endogenous PPAR transactivation, luciferase reporter in primary porcine RPE cells; assay type: cell-based; conditions: A2E 20 μM; for effect on endogenous PPAR transactivation induced by A2E: MK886 1 μM, GSK3787 1 μM, T007907 10 μM, separately or as mixture
Protocol: (§1) Pig eyes were obtained from a local slaughterhouse and transported to the laboratory in ice-cold Ringer solution. After removal of the anterior segment of the eye, the vitreous and neural retina was separated from the RPE and removed. The eyecup was washed twice with phosphate buffer saline (PBS), filled with trypsin (0.25% in PBS) and incubated at 37°C for 1.5 h. RPE cells were harvested by gently pipetting, centrifuged to remove trypsin and re-suspended in Dulbecco’s Modified Eagle Medium (DMEM) supplemented with 20% (v/v) foetal-calf serum (DMEM20%FCS) and 0.1% gentamycin. Cells were seeded into 60 mm diameter Petri dishes, cultured in an atmosphere of 5% CO2/95% air at 37°C, and supplied with fresh medium after 24 hours and 4 days in vitro. For experiments aimed at measuring mRNA or protein expression in RPE, cells were trypsinized after one week in culture and transferred to 24-well or 6-well plates at a density of 1.5 × 10^5 cells/cm^2 in DMEM2%FCS. Norbixin or agonists were added to the medium 24 h after seeding, and antagonists were added to the medium 24 h later. A2E treatment was performed during 19 h before cellular sample preparation. All the drugs used in these experiments were prepared as stock solutions in DMSO.
(§2) After one week in culture, cells were trypsinized and transferred to a 96-well plate at a density of 6 × 10^4 cells/cm^2 in DMEM2%FCS. The next day, cells were transfected using the Cignal Reporter Assay Kits for PPAR, RXR, AP-1 and NF-κB, according to the manufacturer’s specifications. To measure the specific activation of PPAR isoforms, cells were also co-transfected with PPAR-α, PPAR-β/δ or PPAR-γ expression vectors. Transfection was performed with Lipofectamine and Plus Reagent in serum-free medium. 3 h after the transfection, the medium was replaced and treatments with the molecules to assay were performed. Luciferase activity was measured the next day using the Dual-Luciferase Reporter Assay System. The measurements were performed with a luminometer (Infinite M1000 from Tecan, Mannedorf, Switzerland). Firefly: Renilla activity ratios were calculated for each condition and ratios from transcription factor-responsive reporter transfections were divided by ratios from negative control transfections to obtain relative luciferase unit, as described by the manufacturer. At least 3 independent transfections were performed in triplicate for each condition.

IL-6 = IL-6 mRNA expression by quantitative RT-PCR in porcine RPE cells; assay type: cell-based; conditions: T007907 10 μM; for reduction of IL-6 mRNA expression induced by A2E: NBX 20 μM with A2E 30 μM, MK886 1 μM, GSK3787 1 μM, HX531 5 μM with A2E 20 μM
Protocol: as §1
(§3) Total RNA was extracted using the NucleoSpin® RNA kit according to manufacturer’s instructions. RT of 500 ng of RNA was performed using the SuperScript III Reverse Transcriptase following the manufacturer’s instructions. Five ng of cDNA were amplified using the SYBR GREEN real-time PCR method. PCR primers for target genes and housekeeping gene GAPDH were designed using Primer3Plus Bioinformatic software (Table 2). The RT-PCR using the StepOne Plus (Life Technologies, Carlsbad, CA, USA) consisted of incubation at 50°C for 5 min followed by 40 cycles of 95°C for 15 s and of 60°C for 1 min. The reaction was completed by a melt curve stage at 95°C for 15 s, 60°C for 1 min, 95°C for 15 s and a final step at 60°C for 15 s. The relative mRNA expression was calculated using the comparative threshold method (Ct-method) with GAPDH for normalization. All experimental conditions were processed in triplicate and each experiment was done at least 3 times.

IL-8 = IL-8 mRNA expression by quantitative RT-PCR in porcine RPE cells; assay type: cell-based; conditions: A2E 20 μM; MK886 1 μM, GSK3787 1 μM, T007907 10 μM, HX531 5 μM
Protocol: as §1, §3

RXR = experiment: Endogenous RXR transactivation, luciferase reporter in porcine RPE cells; assay type: cell-based; conditions: NBX 20 μM
Protocol: as §1, §2

NF-κB = NF-κB transactivation, luciferase reporter in porcine RPE cells; assay type: cell-based; conditions: A2E 20 μM, T007907 10 μM; for inhibition of NF-κB transactivation induced by A2E: NBX 20 μM, HX531 5 μM
Protocol: as §1, §2

AP-1 = AP-1 transactivation, luciferase reporter in porcine RPE cells; assay type: cell-based; conditions: A2E 20 μM; NBX 20 μM, HX531 5 μM
Protocol: as §1
as §2, with “Transfection was performed with Lipofectamine and Plus Reagent in serum-free medium. 3 h after the transfection, the medium was replaced and treatments with the molecules to assay were performed.” left out, “The measurements were performed with a luminometer (Infinite M1000 from Tecan, Mannedorf, Switzerland).” left out, “At least 3 independent transfections were performed in triplicate for each condition.” left out

VEGF = VEGF mRNA expression by quantitative RT-PCR in porcine RPE cells; assay type: cell-based; conditions: HX531 5 μM + A2E 20 μM
Protocol: as §1
as §3, with “All experimental conditions were processed in triplicate and each experiment was done at least 3 times.” left out

PPAR-α [1] = experiment: Transactivation of over-expressed PPAR-α, luciferase reporter in porcine RPE cells; assay type: cell-based, pig; conditions: vs DMSO control; A2E 20 μM; NBX increasing concentrations
Protocol: First, we evaluated the binding profile of A2E to all three isoforms of PPAR. […] Then the effects of A2E on the endogenous PPAR transactivation in porcine RPE cells were investigated by means of a luciferase assay. […] The level of transactivation of PPAR-α, -β/δ, or -γ isoforms by A2E was determined by co-transfection of porcine RPE cells with a plasmid expressing each of the full-length PPAR isoforms and a plasmid expressing luciferase under the control of the PPAR response element. […]. All usual chemicals, primers, and HX531 were from Sigma (St. Louis, MO, USA). Reagents for cell culture, transfection and quantitative RT-PCR were from Thermo Fisher Scientific (Waltham, MA, USA). RNA extraction NucleoSpin® RNA kit was from Macherey Nagel (Düren, Germany). ECL prime and PVDF membrane were from Amersham GE Healthcare (Buckinghamshire, UK). Primary antibodies against the following proteins were used: GAPDH (Santa Cruz Biotechnology, Inc, Dallas, TX, USA); pAKT, AKT, pERK and ERK (Cell Signaling, Danvers, MA, USA). Secondary antibodies were from Jackson ImmunoResearch (Cambridgeshire, UK). […] Cignal Pathway Reporter Assay Kits were from QIAGEN (Frederick, MD, USA). The Dual-Luciferase Reporter Assay System was purchased from Promega (Madison, WI, USA). pcDNA 3.1 (+)-PPARα and pcDNA 3.1 (+)-PPARβ/δ (pig sequence) were purchased from Genscript (Piscataway, NJ, USA). pCMV6-XL4-PPARγ (human sequence) was purchased from Origene (Rockville, MD, USA).
as §2

PPAR-α [2] = biological target: T1, PPAR-α (Homo sapiens, UniProt Q07869); conditions: stated without reference; cited from earlier work
T1 construct: Eurofins Cerep (contract laboratory that ran the assay)
T1 sequence (Q07869 1-468): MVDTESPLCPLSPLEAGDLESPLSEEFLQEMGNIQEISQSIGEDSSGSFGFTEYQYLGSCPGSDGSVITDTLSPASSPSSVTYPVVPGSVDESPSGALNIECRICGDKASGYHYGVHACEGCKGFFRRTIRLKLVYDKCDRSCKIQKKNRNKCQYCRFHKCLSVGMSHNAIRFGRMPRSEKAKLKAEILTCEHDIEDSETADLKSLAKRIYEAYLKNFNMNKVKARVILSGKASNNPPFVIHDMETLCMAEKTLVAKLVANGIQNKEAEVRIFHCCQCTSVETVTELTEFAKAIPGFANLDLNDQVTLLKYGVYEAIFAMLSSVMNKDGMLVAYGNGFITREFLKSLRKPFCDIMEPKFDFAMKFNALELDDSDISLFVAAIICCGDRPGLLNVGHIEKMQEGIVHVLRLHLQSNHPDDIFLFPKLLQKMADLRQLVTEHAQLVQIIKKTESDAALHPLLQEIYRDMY

SMILES	effect on endogenous PPAR transactivation induced by A2E (PPAR)	reduction of IL-6 mRNA expression induced by A2E (IL-6) [%]	inhibition of IL-8 mRNA expression induced by A2E (IL-8) [%]	inhibition of NF-κB transactivation induced by A2E (NF-κB) [%]	also measured
CC(C)c1ccc2c(c1)c(SC(C)(C)C)c(CC(C)(C)C(=O)O)n2Cc1ccc(Cl)cc1 [MK886]	did not significantly inhibit	58.7	37		
CN1c2ccc([N+](=O)[O-])cc2N=C(c2ccc(C(=O)O)cc2)c2cc3c(cc21)C(C)(C)CCC3(C)C [HX531]		88.6	99.6	100	inhibition of endogenous PPAR transactivation induced by A2E (PPAR; NBX 20 μM, HX531 5 μM (HX531 effect not significant)): 30%; inhibition of RXR transactivation induced by A2E (RXR; A2E 20 μM, HX531 5 μM): 50.1%; inhibition of AP-1 transactivation induced by A2E (AP-1): 100%; lowering of VEGF mRNA expression induced by A2E (VEGF): 76.8%
CCCCCCCN(CCc1ccc(SC(C)(C)C(=O)O)cc1)C(=O)Nc1ccc(F)cc1F [GW9578]					transactivation of over-expressed PPAR-α by the compound alone (PPAR-α [1]): induced transactivation; binding affinity to PPAR-α (PPAR-α [2]): nanomolar range
O=C(Nc1ccncc1)c1cc([N+](=O)[O-])ccc1Cl [T007907]	did not significantly inhibit	69.6	45.9	100	effect of the compound alone on NF-κB transactivation (NF-κB; vs DMSO control): inhibited; effect of the compound alone on IL-6 mRNA expression (IL-6; vs DMSO control): enhanced
CC1(C)CCC(C)(C)c2cc3c(cc21)Sc1ccccc1N=C3c1ccc(C(=O)O)cc1 [HX630]					transactivation of RXRs by the compound alone (RXR; HX630 5 μM, vs DMSO control): transactivation induced by HX630
O=C(NCCS(=O)(=O)c1ccc(C(F)(F)F)cn1)c1ccc(Cl)cc1 [GSK3787]	did not significantly inhibit	45	35		
